Laboratory results from patent publication US9493446B2, “Orexin receptor antagonists which are [ortho bi-(hetero-)aryl]-[2-(meta bi-(hetero-)aryl)-pyrrolidin-1-yl]-methanone derivatives” (Actelion Pharmaceuticals Ltd, priority 2012, dated 2016).
Read-outs that look alike come from different tables or passages of the source.

How the values were obtained:
orexin-1 = orexin-1 (Homo sapiens (Human), UniProt O43613); assay: Intracellular calcium measurement (FLIPR), CHO cells expressing human orexin-1 receptor, 3 nM orexin-A; assay type: cell-based; details: read-out: IC50 OX1
Chain of orexin-1 (O43613 whole entry): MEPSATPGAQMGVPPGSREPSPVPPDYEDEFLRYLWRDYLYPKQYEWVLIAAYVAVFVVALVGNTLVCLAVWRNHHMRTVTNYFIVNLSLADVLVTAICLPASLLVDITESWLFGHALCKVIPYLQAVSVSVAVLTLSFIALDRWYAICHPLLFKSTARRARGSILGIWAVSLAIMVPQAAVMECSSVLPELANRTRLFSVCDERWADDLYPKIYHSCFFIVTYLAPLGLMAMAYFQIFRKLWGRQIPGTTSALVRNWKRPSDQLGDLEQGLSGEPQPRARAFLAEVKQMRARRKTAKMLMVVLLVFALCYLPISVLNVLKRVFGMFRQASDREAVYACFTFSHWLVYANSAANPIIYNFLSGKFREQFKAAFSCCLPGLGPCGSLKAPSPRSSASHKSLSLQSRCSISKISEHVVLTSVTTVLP
Outline: (§1)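 CHO cells stably expressing each receptor were loaded with 3 μM fluo-4 AM plus 5 mM probenecid for 50 min at 37 °C, then equilibrated 30 min at rt.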

human orexin-2 receptor = human orexin-2 receptor (Homo sapiens (Human), UniProt O43614); assay: Intracellular calcium measurement (FLIPR), CHO cells expressing human orexin-2 receptor, 3 nM orexin-A; assay type: cell-based; details: read-out: IC50 OX2
Chain of human orexin-2 receptor (O43614 whole entry): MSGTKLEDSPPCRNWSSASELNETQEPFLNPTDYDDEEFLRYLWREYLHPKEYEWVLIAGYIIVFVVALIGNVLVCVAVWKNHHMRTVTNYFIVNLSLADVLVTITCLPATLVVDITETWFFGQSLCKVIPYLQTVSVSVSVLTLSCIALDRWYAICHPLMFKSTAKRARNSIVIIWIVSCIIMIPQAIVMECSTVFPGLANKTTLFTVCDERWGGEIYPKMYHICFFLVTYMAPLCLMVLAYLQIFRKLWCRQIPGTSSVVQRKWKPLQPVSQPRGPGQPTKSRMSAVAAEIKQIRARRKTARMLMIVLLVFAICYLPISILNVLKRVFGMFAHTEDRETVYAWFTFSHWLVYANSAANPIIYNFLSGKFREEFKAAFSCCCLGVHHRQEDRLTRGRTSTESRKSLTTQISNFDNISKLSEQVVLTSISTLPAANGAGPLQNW
Outline: as §1

[1] = CHO cells expressing human orexin-1 receptor, FLIPR, 3 nM orexin-A, geometric mean if determined several times
[2] = CHO cells expressing human orexin-2 receptor, FLIPR, 3 nM orexin-A, geometric mean if determined several times

| IC50 (orexin-1; [1]) | IC50 (human orexin-2 receptor; [2]) | SMILES | IC50 (orexin-1) | IC50 (human orexin-2 receptor) |
| --- | --- | --- | --- | --- |
| 174 nM | 70 nM | COc1cc(C(=O)N2CCC[C@H]2c2nc(-c3ccccc3OC(F)(F)F)no2)c(-n2nccn2)cc1F [compound 174, (4-Fluoro-5-methoxy-2-[1,2,3]triazol-2-yl-phenyl)-{(S)-2-[3-(2-trifluoromethoxy-phenyl)-[1,2,4]oxadiazol-5-yl]-pyrrolidin-1-yl}-methanone] | – | – |
| 874 nM | 131 nM | COc1ccc(-c2noc([C@@H]3CCCN3C(=O)c3cc(C)ccc3-n3nccn3)n2)cc1OC [compound 82, {(S)-2-[3-(3,4-Dimethoxy-phenyl)-[1,2,4]oxadiazol-5-yl]-pyrrolidin-1-yl}-(5-methyl-2-[1,2,3]triazol-2-yl-phenyl)-methanone] | – | – |
| 252 nM | 16 nM | Cc1ccc(-n2nccn2)c(C(=O)N2CCC[C@H]2c2nc(-c3ccc(C)c(C)c3)no2)c1 [compound 80, {(S)-2-[3-(3,4-Dimethyl-phenyl)-[1,2,4]oxadiazol-5-yl]-pyrrolidin-1-yl}-(5-methyl-2-[1,2,3]triazol-2-yl-phenyl)-methanone] | – | – |
| 8 nM | 22 nM | Cc1ccc(-n2nccn2)c(C(=O)N2CCC[C@H]2c2nc(-c3cccnc3OC(C)C)no2)c1 [compound 71, {(S)-2-[3-(2-Isopropoxy-pyridin-3-yl)-[1,2,4]oxadiazol-5-yl]-pyrrolidin-1-yl}-(5-methyl-2-[1,2,3]triazol-2-yl-phenyl)-methanone] | – | – |
| 49 nM | 30 nM | Cc1ccc(-c2ccccn2)c(C(=O)N2CCC[C@H]2c2nc(-c3ccccc3OC(F)(F)F)no2)c1 [compound 138, (5-Methyl-2-pyridin-2-yl-phenyl)-{(S)-2-[3-(2-trifluoromethoxy-phenyl)-[1,2,4]oxadiazol-5-yl]-pyrrolidin-1-yl}-methanone] | – | – |
| 495 nM | 87 nM | O=C(c1ccc(F)cc1-n1nccn1)N1CCC[C@H]1c1nc(-c2ccccc2OC(F)(F)F)no1 [compound 163, (4-Fluoro-2-[1,2,3]triazol-2-yl-phenyl)-{(S)-2-[3-(2-trifluoromethoxy-phenyl)-[1,2,4]oxadiazol-5-yl]-pyrrolidin-1-yl}-methanone] | – | – |
| – | – | Cc1ccc(-n2nccn2)c(C(=O)N2CCC[C@H]2c2nc(-c3cccc(Cl)c3C)no2)c1F [compound 266] | 115 nM | 14 nM |
| 258 nM | 151 nM | Cc1cc(F)cc(C(=O)N2CCC[C@H]2c2nc(-c3ccccc3OC(F)(F)F)no2)c1-n1nccn1 [compound 176, (5-Fluoro-3-methyl-2-[1,2,3]triazol-2-yl-phenyl)-{(S)-2-[3-(2-trifluoromethoxy-phenyl)-[1,2,4]oxadiazol-5-yl]-pyrrolidin-1-yl}-methanone] | – | – |
| 642 nM | 113 nM | Cc1cc(C)cc(-c2nnc([C@@H]3CCCN3C(=O)c3cc(C)ccc3-n3nccn3)[nH]2)c1 [Example 511, {(S)-2-[5-(3,5-Dimethyl-phenyl)-4H-[1,2,4]triazol-3-yl]-pyrrolidin-1-yl}-(5-methyl-2-[1,2,3]triazol-2-yl-phenyl)-methanone] | – | – |
| 652 nM | 80 nM | CCc1ccccc1-c1nnc([C@@H]2CCCN2C(=O)c2cc(C)ccc2-n2nccn2)[nH]1 [compound 512, {(S)-2-[5-(2-Ethyl-phenyl)-4H-[1,2,4]triazol-3-yl]-pyrrolidin-1-yl}-(5-methyl-2-[1,2,3]triazol-2-yl-phenyl)-methanone] | – | – |
| 8 nM | 9 nM | CCOc1ncccc1-c1nnc([C@@H]2CCCN2C(=O)c2cc(C)c(C)cc2-n2nccn2)[nH]1 [compound 480, (4,5-Dimethyl-2-[1,2,3]triazol-2-yl-phenyl)-{(S)-2-[5-(2-ethoxy-pyridin-3-yl)-4H-[1,2,4]triazol-3-yl]-pyrrolidin-1-yl}-methanone] | – | – |
| 130 nM | 3 nM | Cc1ccc(-n2nccn2)c(C(=O)N2CCC[C@H]2c2noc(-c3cccc4c3OCC4)n2)c1 [compound 307, {(S)-2-[5-(2,3-Dihydro-benzofuran-7-yl)-[1,2,4]oxadiazol-3-yl]-pyrrolidin-1-yl}-(5-methyl-2-[1,2,3]triazol-2-yl-phenyl)-methanone] | – | – |
| 104 nM | 30 nM | O=C(c1ccccc1-c1ncco1)N1CCC[C@H]1c1nc(-c2ccccc2OC(F)(F)F)no1 [compound 171, (2-Oxazol-2-yl-phenyl)-{(S)-2-[3-(2-trifluoromethoxy-phenyl)-[1,2,4]oxadiazol-5-yl]-pyrrolidin-1-yl}-methanone] | – | – |
| 1250 nM | 333 nM | Cc1cc(CC(C)C)nc(-c2noc([C@@H]3CCCN3C(=O)c3cc(C)ccc3-n3nccn3)n2)c1 [compound 67, {(S)-2-[3-(6-Isobutyl-4-methyl-pyridin-2-yl)-[1,2,4]oxadiazol-5-yl]-pyrrolidin-1-yl}-(5-methyl-2-[1,2,3]triazol-2-yl-phenyl)-methanone] | – | – |
| 1110 nM | 145 nM | CCOc1ccccc1-c1noc([C@@H]2CCCN2C(=O)c2cccc(C)c2-n2nccn2)n1 [compound 262, {(S)-2-[3-(2-Ethoxy-phenyl)-[1,2,4]oxadiazol-5-yl]-pyrrolidin-1-yl}-(3-methyl-2-[1,2,3]triazol-2-yl-phenyl)-methanone] | – | – |
| 57 nM | 10 nM | Cc1ccc(C)c(-c2nc([C@@H]3CCCN3C(=O)c3ccc(C)cc3-n3nccn3)no2)c1 [compound 393, {(S)-2-[5-(2,5-Dimethyl-phenyl)-[1,2,4]oxadiazol-3-yl]-pyrrolidin-1-yl}-(4-methyl-2-[1,2,3]triazol-2-yl-phenyl)-methanone] | – | – |
| 1620 nM | 1790 nM | O=C(c1ncsc1-c1ccccc1)N1CCC[C@H]1c1nnc(-c2ccccc2OC(F)(F)F)[nH]1 [compound 483, (5-Phenyl-thiazol-4-yl)-{(S)-2-[5-(2-trifluoromethoxy-phenyl)-4H-[1,2,4]triazol-3-yl]-pyrrolidin-1-yl}-methanone] | – | – |
| 21 nM | 5 nM | Cc1ccc(-n2nccn2)c(C(=O)N2CCC[C@H]2c2cc(-c3ccccc3OC(F)(F)F)on2)c1 [compound 434, (5-Methyl-2-[1,2,3]triazol-2-yl-phenyl)-{(S)-2-[5-(2-trifluoromethoxy-phenyl)-isoxazol-3-yl]-pyrrolidin-1-yl}-methanone] | – | – |
| 55 nM | 35 nM | Cc1cc(C)c(-n2nccn2)c(C(=O)N2CCC[C@H]2c2nc(-c3ccccc3OC(F)(F)F)no2)c1 [compound 170, (3,5-Dimethyl-2-[1,2,3]triazol-2-yl-phenyl)-{(S)-2-[3-(2-trifluoromethoxy-phenyl)-[1,2,4]oxadiazol-5-yl]-pyrrolidin-1-yl}-methanone] | – | – |
| 100 nM | 45 nM | Cc1cccc(-c2ocnc2C(=O)N2CCC[C@H]2c2nc(-c3ccccc3OC(F)(F)F)no2)c1 [compound 140, (5-m-Tolyl-oxazol-4-yl)-{(S)-2-[3-(2-trifluoromethoxy-phenyl)-[1,2,4]oxadiazol-5-yl]-pyrrolidin-1-yl}-methanone] | – | – |
| 26 nM | 8 nM | COc1cc(C)cc(-c2nc([C@@H]3CCCN3C(=O)c3cc(OC)c(C)cc3-n3nccn3)no2)c1 [compound 385, {(S)-2-[5-(3-Methoxy-5-methyl-phenyl)-[1,2,4]oxadiazol-3-yl]-pyrrolidin-1-yl}-(5-methoxy-4-methyl-2-[1,2,3]triazol-2-yl-phenyl)-methanone] | – | – |
| 386 nM | 222 nM | Cc1ccc(-n2nccn2)c(C(=O)N2CCC[C@H]2c2cc(-c3ccccc3)n[nH]2)c1 [Example 530, (5-Methyl-2-[1,2,3]triazol-2-yl-phenyl)-[(S)-2-(5-phenyl-2H-pyrazol-3-yl)-pyrrolidin-1-yl]-methanone] | – | – |

| SMILES | IC50 (orexin-1; [1]) | IC50 (human orexin-2 receptor; [2]) | IC50 (orexin-1) | IC50 (human orexin-2 receptor) |
| --- | --- | --- | --- | --- |
| Cc1c(Cl)cccc1-c1noc([C@@H]2CCCN2C(=O)c2ccc(Cl)cc2-n2nccn2)n1 [compound 121] | – | 15 nM | 145 nM | – |
| Cc1c(F)cccc1-c1nc([C@@H]2CCCN2C(=O)c2ccc(Cl)cc2-n2nccn2)no1 [compound 379] | 52 nM | 5 nM | – | – |
| COc1ccccc1-c1nnc([C@@H]2CCCN2C(=O)c2ccc(Cl)cc2-n2nccn2)[nH]1 [compound 470] | 57 nM | – | – | 31 nM |
| Cc1cc(C)c(-n2nccn2)c(C(=O)N2CCC[C@H]2c2nc(-c3cccc(Cl)c3C)no2)c1 [compound 119] | 188 nM | – | – | 24 nM |
| Cc1cc(C(=O)N2CCC[C@H]2c2nc(-c3cccc(Cl)c3C)no2)c(-n2cccn2)cc1C [compound 115] | 78 nM | 6 nM | – | – |
| COc1cc(C(=O)N2CCC[C@H]2c2nc(-c3ccccc3Cl)no2)c(-n2nccn2)cc1C [compound 239] | – | 24 nM | 378 nM | – |
| Cc1c(Cl)cccc1-c1noc([C@@H]2CCCN2C(=O)c2cccc(Cl)c2-n2nccn2)n1 [compound 296] | 582 nM | – | – | 272 nM |
| Cc1ccc(-n2nccn2)c(C(=O)N2CCC[C@H]2c2nc(-c3cccnc3OC3CCC3)no2)c1 [compound 48, {(S)-2-[3-(2-Cyclobutoxy-pyridin-3-yl)-[1,2,4]oxadiazol-5-yl]-pyrrolidin-1-yl}-(5-methyl-2-[1,2,3]triazol-2-yl-phenyl)-methanone] | 45 nM | 58 nM | – | – |
| CCOc1c(F)cccc1-c1nc([C@@H]2CCCN2C(=O)c2ccc(Cl)cc2-n2nccn2)no1 [compound 329] | 16 nM | – | – | 4 nM |
| Cc1ccc(-n2nccn2)c(C(=O)N2CCC[C@H]2c2cc(-c3cccc(Cl)c3C)on2)c1 [compound 431] | 19 nM | 2 nM | – | – |
| Cc1c(Cl)cccc1-c1noc([C@@H]2CCCN2C(=O)c2cc(C(F)(F)F)ccc2-n2nccn2)n1 [compound 97] | 568 nM | 194 nM | – | – |
